Results: patent US7169761B2, “Azulene derivatives and salts thereof” (Astellas Pharma Inc., priority 2002, dated 2007)

Key:
human SGLT2 = target: T1, human SGLT2 (Homo sapiens, UniProt P31639); assay: Inhibition of human Na+-glucose cotransporter (human SGLT2) activity: methyl-α-D-glucopyranoside intake in CHO cells stably expressing human SGLT2; type: cell-based; details: inhibition of methyl-α-D-(U-14C)glucopyranoside intake, CHO cells stably expressing human SGLT2, 37° C., two hours
T1 construct: expressed in transfected cells; host or cells: CHO-K1
T1 sequence (P31639 1-672): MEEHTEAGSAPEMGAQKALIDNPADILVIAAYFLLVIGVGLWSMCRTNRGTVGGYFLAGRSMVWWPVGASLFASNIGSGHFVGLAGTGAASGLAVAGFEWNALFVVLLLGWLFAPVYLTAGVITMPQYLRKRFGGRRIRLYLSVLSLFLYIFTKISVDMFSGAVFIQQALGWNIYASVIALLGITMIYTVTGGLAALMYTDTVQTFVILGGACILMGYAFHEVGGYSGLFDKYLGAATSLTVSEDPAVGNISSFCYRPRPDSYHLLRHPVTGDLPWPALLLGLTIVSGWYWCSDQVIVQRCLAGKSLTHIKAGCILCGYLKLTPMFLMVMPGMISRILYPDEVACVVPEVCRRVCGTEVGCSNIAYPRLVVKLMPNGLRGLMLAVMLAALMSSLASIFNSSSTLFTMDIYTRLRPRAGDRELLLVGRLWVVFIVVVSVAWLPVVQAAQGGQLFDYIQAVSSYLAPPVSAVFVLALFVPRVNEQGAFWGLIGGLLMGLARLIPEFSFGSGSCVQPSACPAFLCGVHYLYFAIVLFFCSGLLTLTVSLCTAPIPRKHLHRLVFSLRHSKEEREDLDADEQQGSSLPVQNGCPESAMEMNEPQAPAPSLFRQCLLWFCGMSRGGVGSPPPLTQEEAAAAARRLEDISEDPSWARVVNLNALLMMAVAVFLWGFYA
From the text: [Inhibition of Human Na^+-Glucose Cotransporter (Human SGLT2) Activity]
(1) Preparation of Human SGLT 2 Expression Vector
First, single-strand cDNA was reversely transcripted from total RNA originating from the human kidney (manufactured by BD Biosciences Clontech) using a Superscript II (manufactured by Invitrogen Corporation) and a random hexamer. Second, using the cDNA as a template, a DNA fragment encoding a human SGLT2 (Wells, R. G. et al., Am. J. Physiol., 1992, 263(3) F459) was amplified by the PCR reaction using Pyrobest DNA polymerase (manufactured by Takara Bio Inc.). That is, a Hind III site and an EcoRI site were inserted into the 5′ side and the 3′ side of the DNA fragment, respectively by using primers.
The amplified fragment was cloned into a pCR2.1-Topo vector using a Topo TA Cloning Kit (manufactured by Invitrogen Corporation) and the cloned vector was transfected into a competent cell of Escherichia coli JM109. Ampicillin-resistant clones were cultured in a LB medium containing ampicillin (100 mg/l). A plasmid was purified from the cultured Escherichia coli using the method of Hanahan (see Maniatis et al., “Molecular Cloning”). A DNA fragment for encoding a human SGLT2 was obtained by the Hind III/EcoRI digestion of the plasmid and ligated and cloned to the same site of the expression vector pcDNA 3.1 (manufactured by Invitrogen Corporation) using a DNA ligase (manufactured by Roche Diagnostics). The ligated clone was transfected into a competent cell of Escherichia coli JM109 in the same manner as described above and cultured in a LB medium containing ampicillin, and a human SGLT2 expression vector was obtained using the method of Hanahan.
(2) Preparation of Human SGLT2 Expressed Cells
The human SGLT2 expression vector was transfected into a CHO-K1 cell using Lipofectamine2000 (manufactured by Invitrogen Corporation). The cell was cultured in a Ham's F12 medium (manufactured by Nissui Pharmaceutical Co., Ltd.) containing penicillin (50 IU/ml, manufactured by Dainippon Pharmaceutical Co., Ltd.), streptomycin (50 μg/ml, manufactured by Dainippon Pharmaceutical Co., Ltd.), Geneticin (40 μg/ml, manufactured by Invitrogen Corporation), and 10% fetal bovine serum in the presence of 5% CO2 at 37° C. for two weeks, and Geneticin-resistant clones were obtained.
(3) Inhibition of Methyl-α-D-Glucopyranoside Intake
After removing the medium of a CHO cell which stably expresses the human SGLT2, a pretreatment buffer solution (buffer solution of pH 7.4 containing choline chloride (140 mM), potassium chloride (2 mM), calcium chloride (1 mM), magnesium chloride (1 mM), 2-[4-(2-hydroxyethyl)1-piperazinyl]ethanesulfonic acid (10 mM), and tris(hydroxymethyl) aminomethane (5 mM)) was added in the amount of 100 μl per well, and incubated at 37° C. for 20 minutes.
11 μl of methyl-α-D-(U-14C) glucopyranoside (manufactured by Amersham Pharmacia Biotech) was mixed with 1,000 μl of a buffer solution for intake containing a test compound (buffer solution of pH 7.4 containing sodium chloride (140 mM), potassium chloride (2 mM), calcium chloride (1 mM), magnesium chloride (1 mM), methyl-α-D-glucopyranoside (50 μM), 2-[4-(2-hydroxyethyl)1-piperazinyl]ethanesulfonic acid (10 mM), and tris(hydroxymethyl)aminomethane (5 mM)) to prepare a buffer solution for intake. A buffer solution for intake without a test compound was prepared for a control group. A buffer solution for basal intake without a test compound containing coline chloride (140 mM) instead of sodium chloride for measuring the basal intake was prepared as well.
After removing the pretreatment buffer solution, the buffer solution for intake was added (25 μl per well) and incubated at 37° C. for two hours. […]

[1] = system: blood glucose of KK-A^y mice; assay: Hypoglycemic activity confirmation test in fed KK-Ay mice; type: in vivo, mouse; details: rate of decrease in blood glucose AUC 0–8 hours vs control group; fed male KK-A^y mice, oral, 3 mg/10 ml suspension at 10 ml/kg
Procedure: [Hypoglycemic Activity Confirmation Test]
Fed KK-A^y mice (CLEA Japan, Inc., male) were used. The test compound was suspended in 0.5% methylcellulose solution to a concentration of 3 mg/10 ml. The weight of each mouse was measured. The test compound suspension was orally administered forcibly to the mice at a dose of 10 ml/kg. Only 0.5% methylcellulose solution was administered to the mice of a control group. Each group consisted of six mice. Blood was collected from the tail vein immediately before administering the compound and one, two, four, and eight hours after administering the compound. The blood glucose value was measured using a glucose CII Test Wako (manufactured by Wako Pure Chemical Industries, Ltd.). The intensity of hypoglycemic activity was determined by calculating the area under the blood glucose value-time curve (AUC) using a trapezoidal method from the glucose value of 0–8 hours after administering the compound and calculating the rate (%) of the decrease in the AUC of the drug-administered group from that of the control group.

Structure (SMILES)	IC50 (human SGLT2) [nM]	Hypoglycemic activity [1] [%]
Cc1ccc(Cc2cc3cccccc-3c2)cc1[C@@H]1O[C@H](CO)[C@@H](O)[C@H](O)[C@H]1O [Example 11]	29	
COc1ccc(Cc2cc3cccccc-3c2)cc1[C@@H]1O[C@H](CO)[C@@H](O)[C@H](O)[C@H]1O [Example 28]	16	46
OC[C@H]1O[C@@H](c2cccc(Cc3cc4cccccc-4c3)c2)[C@H](O)[C@@H](O)[C@@H]1O [Example 25]	22	
OC[C@H]1O[C@@H](c2cc(Cc3cc4cccccc-4c3)ccc2O)[C@H](O)[C@@H](O)[C@@H]1O [Example 75, (1S)-1,5-anhydro-1-[5-(azulen-2-ylmethyl)-2-hydroxyphenyl]-D-glucitol]	8.9	
OC[C@H]1O[C@@H](c2cccc(Cc3ccc4cccc-4cc3)c2)[C@H](O)[C@@H](O)[C@@H]1O [Example 21]	99	
CCOc1ccc(Cc2cc3cccccc-3c2)cc1[C@@H]1O[C@H](CO)[C@@H](O)[C@H](O)[C@H]1O [Example 7, (1S)-1,5-anhydro-1-[5-(azulen-2-ylmethyl)-2-ethoxyphenyl]-D-glucitol]	16	
COc1cc(OC)c([C@@H]2O[C@H](CO)[C@@H](O)[C@H](O)[C@H]2O)cc1Cc1cc2cccccc-2c1 [Example 60, (1S)-1,5-anhydro-1-[5-(azulen-2-ylmethyl)-2,4-dimethoxyphenyl]-D-glucitol]	5.7	45
